Data taken from patent US6784201B2, “Benzothiepines having activity as inhibitors of ileal bile acid transport and taurocholate uptake” (G.D. Searle & Company, priority 1994, dated 2004).

The compounds below were run against T1, human IBAT (Homo sapiens, UniProt Q12908) (assay: In vitro assay of IBAT-mediated uptake of [14C]-taurocholate (TC) in H14 cells). Conditions: 50 μM.
T1 construct: expressed in transfected cells; host or cells: Baby hamster kidney (BHK) cells, clone H14
T1 sequence (Q12908 1-348): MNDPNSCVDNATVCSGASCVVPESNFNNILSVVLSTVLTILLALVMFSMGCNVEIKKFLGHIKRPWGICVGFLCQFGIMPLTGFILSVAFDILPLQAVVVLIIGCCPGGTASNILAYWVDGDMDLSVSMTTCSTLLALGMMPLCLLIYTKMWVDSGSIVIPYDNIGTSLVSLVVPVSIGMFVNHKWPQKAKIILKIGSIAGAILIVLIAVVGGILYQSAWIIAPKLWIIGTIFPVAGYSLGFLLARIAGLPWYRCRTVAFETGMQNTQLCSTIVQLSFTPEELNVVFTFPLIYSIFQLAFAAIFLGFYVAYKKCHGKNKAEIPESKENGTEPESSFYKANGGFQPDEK
Assay type: cell-based
Experimental: In Vitro Assay of Compounds that Inhibit IBAT-Mediated Uptake of [^14C]-Taurocholate (TC) in H14 Cells
Baby hamster kidney cells (BHK) transfected with the cDNA of human IBAT (H14 cells) are seeded at 60,000 cells/well in 96 well Top-Count tissue culture plates for assays run within in 24 hours of seeding, 30,000 cells/well for assays run within 48 hours, and 10,000 cells/well for assays run within 72 hours.
On the day of assay, the cell monolayer is gently washed once with 100 μl assay buffer (Dulbecco's Modified Eagle's medium with 4.5 g/L glucose+0.2% (w/v) fatty acid free bovine serum albumin-(FAF)BSA). To each well 50 μl of a two-fold concentrate of test compound in assay buffer is added along with 50 μl of 6 μM [^14C]-taurocholate in assay buffer (final concentration of 3 μM [^14C]-taurocholate). The cell culture plates are incubated 2 hours at 37° C. prior to gently washing each well twice with 100 μl 4° C. Dulbecco's phosphate-buffered saline (PBS) containing 0.2% (w/v) (FAF)BSA. The wells are then gently washed once with 100 μl 4° C. PBS without (FAF)BSA. To each 200 μl of liquid scintillation counting fluid is added, the plates are heat sealed and shaken for 30 minutes at room temperature prior to measuring the amount of radioactivity in each well on a Packard Top-Count instrument.

| Compound | In vitro % Inhibition of TC Uptake |
| --- | --- |
| cis-4-Hydroxy-5-phenyl-2,3,4,5-tetrahydro spiro(benzothiepine-3,1′-cyclohexane)-1,1-dioxide [Example 60] | 41% |
| 8b-Phenyl-1a,2,3,8b-tetrahydrospiro(benzothiepino[4,5-b]oxirene-2,1′-cyclohexane)-4,4-dioxide [Example 58] | 88% |

Same assay, conditions: 100 uM

| Compound | In vitro % Inhibition of TC Uptake @ 100 uM |
| --- | --- |
| CCCCC1(CC)CS(=O)(=O)c2ccccc2C(Sc2ccccc2)C1O (single isomer, unassigned) [Example 21c, 3-Butyl-3-ethyl-4-hydroxy-5-phenylthio-2,3,4,5-tetrahydro-benzothiepine-1,1-dioxide] | 52% |

Same assay, conditions: 100 uM; read-out: In vitro % Inhibition of TC Uptake @ 100 uM

| Compound | inhibition at 100 µM |
| --- | --- |
| CCCC[C@]1(CC)CSc2ccccc2[C@@H](c2ccccc2)C1=O (relative stereo) [Example 4b, trans-3-Butyl-3-ethyl-5-phenyl-2,3-dihydro-benzothiepin-(5H)4-one] | 9% |

Same assay, conditions: H14 cells, Table 5; read-out: IC50 uM (In vitro Taurocholate Cell Uptake)

| Compound | IC50 |
| --- | --- |
| CCCC[C@]1(CC)CS(=O)(=O)c2ccccc2[C@@H](c2ccc(I)cc2)[C@H]1O [Example 42, (3α,4β,5β) 3-Butyl-3-ethyl-4-hydroxy-5-(4-iodophenyl)-2,3,4,5-tetrahydrobenzothiepine-1,1-dioxide] | 1.5 µM |
| O=S1(=O)CC2(CCCCC2)[C@@H](O)[C@H](c2ccccc2)c2ccccc21 (relative stereo) [Example 59, trans-4-Hydroxy-5-phenyl-2,3,4,5-tetrahydro spiro(benzothiepine-3,1′-cyclohexane)-1,1-dioxide] | 70 µM |

Same assay, conditions: Human TC IC50

| Compound | IC50 |
| --- | --- |
| CCCC[C@]1(CC)CS(=O)(=O)c2ccc(N(C)C)cc2[C@@H](c2ccccc2)[C@H]1O [Example 104] | 0.0056 µM |

Same assay, conditions: read-out: Human TC IC50

| Compound | IC50 |
| --- | --- |
| CCCCC1(CCCC)CS(=O)(=O)c2cc(N(C)C)ccc2C(c2ccccc2)C1O (stereo not shown) [Example 1169] | 0.12 µM |
| CCCCC1(CCCC)CS(=O)(=O)c2ccc(N(C)C)cc2C(c2ccc(O)c(Cl)c2)C1O (stereo not shown) [Example 1229] | 0.049 µM |
| CCCCC1(CCCC)CS(=O)(=O)c2ccc(NN(C)C)cc2C(c2cccc(OC)c2)C1O (stereo not shown) [Example 1140] | 0.023 µM |
| CCCC1(CCC)CS(=O)(=O)c2ccc(N)cc2[C@@H](c2ccccc2)[C@H]1O [Example 289] | 0.23 µM |
| CCCCC1(CCCC)CS(=O)(=O)c2ccc(N(C)C)cc2C(c2ccc(OCc3cc[n+](CC(=O)OC(C)(C)C)cc3)c(F)c2)C1O (stereo not shown) [Example 1295] | 0.014 µM |
| CCCCC1(CCCC)CS(=O)(=O)c2cc(Br)c(N(C)C)cc2C(c2ccc[nH]2)C1O (stereo not shown) [Example 1228] | 0.038 µM |
| CCCCC1(CCCC)CS(=O)(=O)c2ccc(N(C)C)cc2C(c2ccc(OCCOCC[n+]3ccn(CC)c3)c(F)c2)C1O (stereo not shown) [Example 1070] | 0.004 µM |
| CCCCC1(CCCC)CS(=O)(=O)c2ccc(N(C)C)cc2C(c2cccc(OCCOCCOCC[N+](CCOCCOC)(CCOCCOC)CCOCCOC)c2)C1O (stereo not shown) [Example 1065] | 0.004 µM |
| C=COCC[N+](CC)(CC)CCOCCOCCOc1cccc(C2c3cc(NC)ccc3S(=O)(=O)CC(CCCC)(CCCC)C2O)c1 (stereo not shown) [Example 1063] | 0.004 µM |
| CCCCC1(CCCC)CS(=O)(=O)c2c(NC)cccc2C(c2ccc(F)cc2)C1O (stereo not shown) [Example 1305] | 0.25 µM |
| CCCCC1(CCCC)CS(=O)(=O)c2ccc(N(CC)CC)cc2C(c2ccc(F)cc2)C1O (stereo not shown) [Example 1160] | 0.062 µM |
| CCCCC1(CCCC)CS(=O)(=O)c2ccc(N(C)C)cc2C(c2cccc(OCCOCCOCC[N+](CC)(CC)CCNC(N)=O)c2)C1O (stereo not shown) [Example 1364] | 0.006 µM |
| CCCCC1(CCCC)CS(=O)(=O)c2ccc(OC)cc2C(c2ccncc2)C1O (stereo not shown) [Example 1164] | 0.093 µM |
| CCCCC1(CCCC)CS(=O)(=O)c2ccc(N(C)C)cc2C(c2ccc(OC)c(Cl)c2)C1O (stereo not shown) [Example 1125] | 0.012 µM |
| CCCCC1(CCCC)CS(=O)(=O)c2ccc(N(C)CC)cc2C(c2ccc(F)cc2)C1O (stereo not shown) [Example 1141] | 0.023 µM |
| CCCCC1(CCCC)CS(=O)(=O)c2ccc(N(CC)CC)cc2C(c2cccc(OC)c2)C1O (stereo not shown) [Example 1147] | 0.029 µM |
| CCCCC1(CC)CS(=O)(=O)c2ccc(F)cc2C(c2ccc(F)cc2)C1O (single isomer, unassigned) [Example 274] | 0.18 µM |
| CCCCC1(CC)CS(=O)(=O)c2ccc(F)cc2C(c2cccc(OC)c2)C1O (stereo not shown) [Example 276] | 0.23 µM |
| CCCCC1(CCCC)CS(=O)(=O)c2ccc(N(C)C)cc2C(c2ccc(OCc3ccncc3)c(F)c2)C1O (stereo not shown) [Example 1113] | 0.009 µM |
| CCCCC1(CCCC)CS(=O)(=O)c2ccc(N(C)C)cc2C(c2cccc(OCCOCCOCC[n+]3ccccc3C)c2)C1O (stereo not shown) [Example 1083] | 0.005 µM |

| Compound | IC50 |
| --- | --- |
| CCCCC1(CC)CS(=O)(=O)c2ccc(NC)cc2C(c2ccc(OC)c(F)c2)C1O (stereo not shown) [Example 1060] | 0.0036 µM |
| CCCCC1(CC)CS(=O)(=O)c2ccc(NC(=O)OCc3ccccc3)cc2C(c2ccc(OC)cc2)C1O (single isomer, unassigned) [Example 115] | 8 µM |
| CCCCC1(CC)CS(=O)(=O)c2ccc(N)cc2C(c2ccccc2)C1O (stereo not shown) [Example 1310] | 1.16 µM |
| CCCCC1(CCCC)CS(=O)(=O)c2ccc(N(C)C)cc2C(c2ccc(OCCOCCOCCOCCCl)c(F)c2)C1O (stereo not shown) [Example 1242] | 0.029 µM |
| CCCCC1(CCCC)CS(=O)(=O)c2ccc(N(C)C)cc2C(c2cccc(C[N+](C)(C)CCN(C)C)c2)C1O (stereo not shown) [Example 1233] | 0.15 µM |
| CCCCC1(CCCC)CS(=O)(=O)c2ccc(N(C)C)cc2C(c2cccc(OCCOCCOCC[N+](CC)(CC)CC(OCC)OCC)c2)C1O (stereo not shown) [Example 1120] | 0.01 µM |
| CCCCC1(CC)CS(=O)(=O)c2ccc(N(C)C)cc2C(c2ccc(OC)cc2)C1O (stereo not shown) [Example 1089] | 0.0057 µM |
| CCCCC1(CC)CS(=O)(=O)c2ccc(NC(=O)OCc3ccccc3)cc2C(c2ccccc2)C1O (stereo not shown) [Example 118] | 0.4 µM |
| CCCCC1(CCCC)CS(=O)(=O)c2ccc(N(C)C)cc2C(c2cccc(NC(=O)CCBr)c2)C1O (stereo not shown) [Example 1097] | 0.006 µM |
| CCCCC1(CCCC)CS(=O)(=O)c2ccc(N(C)C)cc2C(c2ccc(O)c(F)c2)C1O (stereo not shown) [Example 1128] | 0.017 µM |
| CCCCC1(CCCC)CS(=O)(=O)c2ccc(N(C)C)cc2C(c2ccc(OCCOCCOCC[N+]3(C)CCN(C)CC3)c(F)c2)C1O (stereo not shown) [Example 1033] | 0.002 µM |
| CCCCC1(CCCC)CS(=O)(=O)c2ccc(N(C)C)cc2C(c2cccc(C[N+](CC)(CC)CC)c2)C1O (stereo not shown) [Example 1206] | 0.035 µM |
| CCCCC1(CCCC)CS(=O)(=O)c2ccc(N(C)C)cc2C(c2cccc(OCCOCCOCC[N+](C)(C)CCN(C)P(C)(=O)c3ccccc3)c2)C1O (stereo not shown) [Example 1024] | 0.002 µM |
| CCCCC1(CC)CS(=O)(=O)c2ccc(N(C)C)cc2C(c2ccc3c(c2)OCO3)C1O (stereo not shown) [Example 1088] | 0.0055 µM |
| CCCCC1(CCCC)CS(=O)(=O)c2ccc(N(C)C)cc2C(c2cccc(OCC[N+](CC)(CC)CC)c2)C1O (stereo not shown) [Example 1087] | 0.005 µM |
| CCCCC1(CCCC)CS(=O)(=O)c2ccc(N(C)C)cc2C(c2cccc(OCCOCCOCC[N+](C)(C)CCC(C)CCN(C)C)c2)C1O (stereo not shown) [Example 1298] | 0.018 µM |
| CCCCC1(CCCC)CS(=O)(=O)c2ccc(NC)cc2C(c2cccc(OCCOCCOCC[n+]3ccccc3CCN3CCCCC3)c2)C1O (stereo not shown) [Example 1064] | 0.004 µM |
| CCCCC1(CCCC)CS(=O)(=O)c2ccc(N(C)C)cc2C(c2cccc(OCCOCCOCC[n+]3cccc(CC(=O)O)c3)c2)C1O (stereo not shown) [Example 1272] | 0.047 µM |
| CCCCC1(CC)CS(=O)(=O)c2ccc(NS(C)(=O)=O)cc2C(c2ccccc2)C1O (stereo not shown) [Example 105] | 0.6 µM |
